# Reference: patent US8242152B2, “Use of 4-[(4-thiazolyl)phenoxy]alkoxy-benzamidine derivatives for the prophylaxis and treatment of osteoporosis” (Dong Wha Pharmaceutical Co., Ltd., priority 2001, dated 2012)
# How the values were obtained:
# MC3T3-E1 cells = test: Alkaline phosphatase (ALP) activity to measure osteoblast activity (Example 4); format: cell-based; details: 10^−8M; two weeks culture
# Protocol: This experiment is designed to evaluate the differentiation and activity of osteoblast via ALP activity having a close relationship with osteoblastic bone formation (Y. Wada et al., Bone, 22,479-485, 1998).
# MC3T3-E1 cells (3,000 cells/well) derived from osteoblast were placed on a 96 well plate and after 24-hour culture the media were changed with fresh medium containing various differentiation factors such as ascorbic acid (100 ug/ml) and β-glycerophosphatic acid (5 mM). The medium was also treated with test substances and the medium, containing differentiation factors and the specimen, was changed with a fresh medium every 3 days.
# The culture was terminated after two weeks to measure ALP activity. With the removal of the supernatant, 0.5% Triton X-100 were added for the lysis of cells. 100 ul of p-nitrophenylphosphate (1.21 mM) was added to 50 ul of above mixture. The mixture was incubated at 37° C. for 30 mins and with the addition of 0.2N sodium hydroxide (50 ul), the reaction was terminated. The standard curve was indicated at the absorbance of 405 nm using p-nitrophenol as a standard material and then the absorbance of test substances, so reacted, was measured to observe the production amount of p-nitrophenol.
# As shown in the following table 4, the units of ALP activity were determined as the amount of p-nitrophenol (nM) produced per time (per min or hour)/1 ug protein after measuring the amounts of protein contained in the reaction mixture of each test substance.
# [1] = test system: osteoclast differentiation; test: Inhibitory effects on osteoclast differentiation, co-culture of bone marrow cells and osteoblast, TRAP staining (Example 1); format: cell-based, mice; details: 7-day co-culture; for inhibition at 0.0032 µM / inhibition at 0.016 µM / inhibition at 0.08 µM / inhibition at 0.4 µM / IC50: Mus musculus, Osteoclast, 168 h; for inhibition at 0.0032 µM / inhibition at 0.016 µM / inhibition at 0.08 µM / inhibition at 0.4 µM: read-out: % inhibitory action
# Protocol: The effects of each test substance on osteoclast proliferation and differentiation process were evaluated via co-culture with osteoblast.
# Tibia and Femora were aseptically ectomized from male ddY mice of 6-8 weeks to harvest bone marrow cells by using a syringe (21 G, Korea Green Cross).
# The bone marrow cells were suspended in 5 mL α-MEM medium (Gibco BRL Co.) containing sodium bicarbonate (2.0 g/L), streptomycin (100 mg/L) and penicillin ([…]). The harvested cells were centrifuged at 800×g for 5 minutes to collect the whole quantity. To remove the red blood cells within bone marrow cells, 3 mL of Tris HCl (0.83% NH4Cl, pH7.5) was added and well mixed. After centrifuging the above cells, the numbers of bone marrow cells were counted and then the bone marrow cells were immediately used for a co-culture system with osteoblast.
# The calvaria were aseptically ectomized from neonate ICR mice of 1-2 days, washed with PBS solution and incubated with a mixture of enzyme solutions (0.2% collagenase and 0.1% dispase) at 37° C. gentle shaker. This procedure was sequentially repeated (10, 10, 10, 20, 20 and 20 minutes), and then the calvaria cells having the characteristics of osteoblast, were mostly released from III˜VI digestion groups, were collected and washed with the medium (serum-free α-MEM). The washed cells were cultivated in α-MEM medium containing 10% FBS for 2-3 days. After subculturing, these cells were used for this experiment, and diluted to reach the concentration of 1×10^6 cells/mL for storage at −70° C.
# The volume of final specimen added to the medium was determined at the ratio of 1:1000.
# Bone marrow cells, so prepared from the above No. 1, and osteoblast from calvaria were co-cultured for osteoclast differentiation. Both bone marrow cells (25,000 cells/cm^2) and osteoblast (10,000 cells/cm^2) were plated on a 96 well plate in α-MEM medium containing 10% FBS with the specimen, and then the reaction mixture was cultured for 7 days. Some differentiation factors, such as dexamethasone (10^−6M) and vitamin D3(10^−9M), were also continuously added to the medium from the first day of cultivation. The media were changed with fresh media containing a mixture of specimens and differentiation factors every 2-3 day.
# TRAP was used as a marker to measure osteoclast in consideration of its characteristics showing a positive reaction to TRAP staining solution. TRAP staining solution was prepared in a manner such that 5 mg of naphtol AS-MS phosphate (sigma N-4875), a substrate and 25 mg of coloring agent (Fast Red Violet LB salt) were dissolved in N,N-dimethylformamide (about 0.5 mL) and with the addition of 0.1N NaHCO3 buffer solution (50 mL) containing 50 mM of tartaric acid. The reaction mixture was stored in a refrigerator prior to use.
# After a 7-day culture, the medium was removed from the wells and then the cells were washed once with PBS solution and fixed to PBS containing 10% formalin for 2-5 minutes. The cells were also fixed in a mixed solution, ethanol and acetone (1/1), for about 1 minute, and dried off. The cells were further treated by TRAP staining solution for 15 minutes and washed with PBS to measure the experimental results with the staining degree of cells under a microscopic examination.
# The counts of osteoclast only with more than 3 nuclei showing the TRAP-positive reaction were calculated under a microscopic examination, and each test was reconfirmed over three times to insure more reliable data.
# As shown in the following table 1, the inhibitory effect of each experimental group on the differentiation of osteoclast versus controls were expressed by inhibitory percentage value, and 50% inhibitory concentration on osteoclast differentiation was calculated as IC50.
Compound,ALP activity (units) (MC3T3-E1 cells),% inhibitory action ([1]; 3.2 nM) [%],% inhibitory action ([1]; 16 nM) [%],% inhibitory action ([1]; 80 nM) [%],% inhibitory action ([1]; 400 nM) [%],inhibition at 0.0032 µM ([1]; 3.2 nM) [%],inhibition at 0.016 µM ([1]; 16 nM) [%],inhibition at 0.08 µM ([1]; 80 nM) [%],inhibition at 0.4 µM ([1]; 400 nM) [%],IC50 [1] [nM]
"4-[5-[4-(aminoiminomethyl)phenoxy]pentoxy]-3-methoxy-N,N-bis(1-methylethyl)benzamide maleic acid [CGS-25019C]",15.0,−8.9,8.3,0.0,17.7,,,,,
"Cc1nc(-c2ccc(OCCCCCOc3ccc(C(=N)NO)cc3)cc2)c(C(C)C)s1 [DW1350, N-hydroxy-4-{5-[4-(5-isopropyl-2-methyl-1,3-thiazol-4-yl)phenoxy]pentoxy}-benzamidine]",19.8,,,,,1,68.8,82.3,88,19.9
"Cc1nc(-c2ccc(OCCCCCOc3ccc(C(=N)N)cc3)cc2)c(C(C)C)s1 [DW1352, 4-{5-[4-(5-isopropyl-2-methyl-1,3-thiazol-4-yl)phenoxy]pentoxy}-benzamidine]",17.1,,,,,50,81.8,83.9,92.7,1.25
"COc1cc(C(=O)N(C(C)C)C(C)C)ccc1OCCCCOc1ccc2c(N)noc2c1 [HS1141, N,N-diisopropyl-4-[4-(3-aminobenzo[d]isooxazole-6-yloxy)butoxy]-3-methoxybenzamide]",15.2,,,,,1.2,3,12,23.5,
